Test results taken from patent US11339372B2, “Serum-free medium inducing differentiation of umbilical cord mesenchymal stem cell into insulin-secretion-like cell and preparation method and use thereof” (SCLNOW BIOTECHNOLOGY CO., LTD, priority 2016, dated 2022).

Test system: Human umbilical cord mesenchymal stem cells
Assay: Screening for the content of conophylline in the medium: differentiation induction, cell cluster morphology
Assay type: cell-based
Protocol: Media to be tested: 89 parts by volume of DMEM (High Glucose, with 4.5 g/L glucose), 5 parts by volume of serum replacement (SR), 2 parts by volume of B27 (50×), 1 part by volume of ITS, 1 part by volume of non-essential amino acids (NEAA), 1 part by volume of N-2 (100×), and heparin in a final concentration of 1 μg/ml, 10 mmol/L nicotinamide, and recombinant human basic fibroblast growth factor (b-FGF), epidermal growth factor (EGF), hepatocyte growth factor (HGF) and pentagastrin each in a final concentration of 10 ng/ml, and conophylline with a concentration of 1, 10, 50, 100, 200, and 300 ng/ml respectively.
Human umbilical cord mesenchymal stem cells were induced to differentiate through being cultured in the above media comprising different concentrations of conophylline respectively.

With CC[C@@]12CC(C(=O)OC)=C3Nc4cc5c(cc4[C@@]34CCN(C[C@H]3O[C@H]31)[C@@H]24)[C@@H]1[C@H](O5)[C@@H](O)[C@@]2(CC)CC(C(=O)OC)=C3Nc4c(cc(O)c(OC)c4OC)[C@@]34CCN1[C@@H]24 [conophylline] the “state of cell clusters” value (medium with 1 ng/ml conophylline) was “the maturity of the cell clusters was insufficient”, the “state of cell clusters” value (medium with 10 ng/ml conophylline) was “the maturity of the cell clusters was insufficient” and the “state of cell clusters” value (medium with 50 ng/ml conophylline) was “cell clusters were compact and grew gradually”. The “state of cell clusters” value (medium with 100 ng/ml conophylline) was “cell clusters were compact and grew gradually”, the “state of cell clusters” value (medium with 200 ng/ml conophylline) was “cell clusters were compact and grew gradually” and the “state of cell clusters” value (medium with 300 ng/ml conophylline) was “the differentiated cells had undergone an undirected differentiation”.
